Organism: Rattus norvegicus
Experiment: DrugMatrix - Regimen: Daily Repeat
Assay type: toxicity, organism-based, Sprague-Dawley
Parameters: regimen Daily Repeat, gender Male, age 6-8 weeks
Conditions: in vivo, po, 20 mg/kg, route oral GAVAGE, dose level Low, vehicle 100 % WATER; for ABSOLUTE BASOPHIL / ABSOLUTE EOSINOPHIL / ABSOLUTE LYMPHOCYTE / ABSOLUTE MONOCYTE / ABSOLUTE SEGMENTED NEUTROPHIL / BASOPHIL / EOSINOPHIL / ERYTHROCYTE COUNT / HEMATOCRIT / HEMOGLOBIN / LEUKOCYTE COUNT / LYMPHOCYTE / MEAN CORPUSCULAR HEMOGLOBIN / MEAN CORPUSCULAR HEMOGLOBIN CONCENTRATION / MEAN CORPUSCULAR VOLUME / MONOCYTE / NEUTROPHIL / NUCLEATED RED BLOOD CELLS / PLATELET COUNT: tissue Blood
[1] = 72 h, tissue Plasma, time 3 day
[2] = 120 h, tissue Plasma, time 5 day

`COCCCOc1ccnc(C[S+]([O-])c2nc3ccccc3[nH]2)c1C` (stereo not given) [RABEPRAZOLE] was tested, and the “ABSOLUTE BASOPHIL” value (72 h, time 3 day) was 0 CELLS/uL, the “ABSOLUTE EOSINOPHIL” value (72 h, time 3 day) was 317.67 CELLS/uL and the “ABSOLUTE LYMPHOCYTE” value (72 h, time 3 day) was 11906.67 CELLS/uL. The “ABSOLUTE MONOCYTE” value (72 h, time 3 day) was 267.33 CELLS/uL, the “ABSOLUTE SEGMENTED NEUTROPHIL” value (72 h, time 3 day) was 875 CELLS/uL and the BASOPHIL (72 h, time 3 day) was 0%. For the same compound, the EOSINOPHIL (72 h, time 3 day) was 2.33%, the “ERYTHROCYTE COUNT” value (72 h, time 3 day) was 5.67 x10E6/uL and the HEMATOCRIT (72 h, time 3 day) was 36.1%. For the same compound, the HEMOGLOBIN (72 h, time 3 day) was 13.63 G/DL, the “LEUKOCYTE COUNT” value (72 h, time 3 day) was 13.37 x10E3/uL and the LYMPHOCYTE (72 h, time 3 day) was 89%. The “MEAN CORPUSCULAR HEMOGLOBIN” value (72 h, time 3 day) was 24.07 pg, the “MEAN CORPUSCULAR HEMOGLOBIN CONCENTRATION” value (72 h, time 3 day) was 37.8 G/DL and the “MEAN CORPUSCULAR VOLUME” value (72 h, time 3 day) was 63.8 fL. The MONOCYTE (72 h, time 3 day) was 2%, the NEUTROPHIL (72 h, time 3 day) was 6.67% and the “NUCLEATED RED BLOOD CELLS” value (72 h, time 3 day) was 0 /100WBC. For the same compound, the “PLATELET COUNT” value (72 h, time 3 day) was 1283.67 x10E3/uL, the “ALANINE AMINOTRANSFERASE” value [1] was 42 u/L and the ALBUMIN [1] was 4.3 G/DL. For the same compound, the “ALKALINE PHOSPHATASE” value [1] was 427.67 u/L, the “ASPARTATE AMINOTRANSFERASE” value [1] was 83.33 u/L and the “BLOOD UREA NITROGEN” value [1] was 14.33 mg/dL. For the same compound, the “CARBON DIOXIDE” value [1] was 27 mmol/L, the CHLORIDE [1] was 105.67 MEQ/L and the CHOLESTEROL [1] was 82.33 mg/dL. For the same compound, the “CREATINE PHOSPHOKINASE” value [1] was 491.33 u/L, the CREATININE [1] was 0.16 mg/dL and the GLUCOSE [1] was 161.67 mg/dL. For the same compound, the “LACTATE DEHYDROGENASE” value [1] was 92.33 u/L, the LIPASE [1] was 9 u/L and the PHOSPHORUS [1] was 14.1 mg/dL. For the same compound, the POTASSIUM [1] was 6.68 MEQ/L, the SODIUM [1] was 146.6 MEQ/L and the “TOTAL BILIRUBIN” value [1] was 0.2 mg/dL. For the same compound, the “TOTAL PROTEIN” value [1] was 5.87 G/DL, the “URIC ACID” value [1] was 2.2 mg/dL and the “ABSOLUTE BASOPHIL” value (120 h, time 5 day) was 0 CELLS/uL. For the same compound, the “ABSOLUTE EOSINOPHIL” value (120 h, time 5 day) was 38.67 CELLS/uL, the “ABSOLUTE LYMPHOCYTE” value (120 h, time 5 day) was 10652 CELLS/uL and the “ABSOLUTE MONOCYTE” value (120 h, time 5 day) was 120.67 CELLS/uL. For the same compound, the “ABSOLUTE SEGMENTED NEUTROPHIL” value (120 h, time 5 day) was 788.67 CELLS/uL, the BASOPHIL (120 h, time 5 day) was 0% and the EOSINOPHIL (120 h, time 5 day) was 0.33%. The “ERYTHROCYTE COUNT” value (120 h, time 5 day) was 5.6 x10E6/uL, the HEMATOCRIT (120 h, time 5 day) was 36.27% and the HEMOGLOBIN (120 h, time 5 day) was 13.6 G/DL. For the same compound, the “LEUKOCYTE COUNT” value (120 h, time 5 day) was 11.6 x10E3/uL, the LYMPHOCYTE (120 h, time 5 day) was 91.67% and the “MEAN CORPUSCULAR HEMOGLOBIN” value (120 h, time 5 day) was 24.27 pg. For the same compound, the “MEAN CORPUSCULAR HEMOGLOBIN CONCENTRATION” value (120 h, time 5 day) was 37.5 G/DL, the “MEAN CORPUSCULAR VOLUME” value (120 h, time 5 day) was 64.73 fL and the MONOCYTE (120 h, time 5 day) was 1%. For the same compound, the NEUTROPHIL (120 h, time 5 day) was 7%, the “NUCLEATED RED BLOOD CELLS” value (120 h, time 5 day) was 0 /100WBC and the “PLATELET COUNT” value (120 h, time 5 day) was 1417.67 x10E3/uL. The “ALANINE AMINOTRANSFERASE” value [2] was 49.33 u/L, the ALBUMIN [2] was 4.17 G/DL and the “ALKALINE PHOSPHATASE” value [2] was 321 u/L. The “ASPARTATE AMINOTRANSFERASE” value [2] was 105 u/L, the “BLOOD UREA NITROGEN” value [2] was 19 mg/dL and the “CARBON DIOXIDE” value [2] was 23 mmol/L. The CHLORIDE [2] was 110 MEQ/L, the CHOLESTEROL [2] was 67 mg/dL and the “CREATINE PHOSPHOKINASE” value [2] was 1368.67 u/L. For the same compound, the CREATININE [2] was 0.21 mg/dL, the GLUCOSE [2] was 203 mg/dL and the “LACTATE DEHYDROGENASE” value [2] was 225 u/L. It also gave an LIPASE [2] of 8.67 u/L, a PHOSPHORUS [2] of 13.93 mg/dL and a POTASSIUM [2] of 6.05 MEQ/L. For the same compound, the SODIUM [2] was 148.17 MEQ/L, the “TOTAL BILIRUBIN” value [2] was 0.2 mg/dL and the “URIC ACID” value [2] was 1.77 mg/dL.

From ChEMBL document CHEMBL3885881, “DrugMatrix”
